According to patent US20160257697A1, “THIOPHENE-SUBSTITUTED TETRACYCLIC COMPOUNDS AND METHODS OFUSE THEREOF FOR THE TREATMENT OF VIRAL DISEASES” (priority 2013, published 2016):
Where two headings read alike, the source gives them in different places.

How the values were obtained:
Assay in all cases: microbe, parasite or virus in culture
Format in all cases: cell-based, Hepatitis C virus (HCV)
[1] = tested on: HCV replicon 1AY93H; conditions: Replicon Assay A
How it was run: (§1)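 HCV replicon RNA levels were quantified by TaqMan RT-PCR after 3-day compound exposure (0.5% DMSO, 5% FBS). Cyclophilin RNA, co-amplified in the same reaction, served as endogenous control; Ct values were converted to RNA amounts using linear regression standard curves.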

[2] = tested on: HCV replicon 1A; conditions: Replicon Assay A
How it was run: as §1

[3] = tested on: HCV replicon 2B; conditions: Replicon Assay A
How it was run: as §1

[4] = tested on: HCV replicon 1B; conditions: Replicon Assay B
[5] = tested on: HCV replicon 1AQ30D; conditions: Replicon Assay B
[6] = read-out: 1A Y93H IC50, replicon 1AY93H
[7] = read-out: 1A Q30D IC50, replicon 1AQ30D
[8] = Hepatitis C virus, read-out: 1A Q30D IC50 (nM), replicon 1AQ30D
[9] = Hepatitis C virus, read-out: 1A Y93H IC50 (nM), replicon 1AY93H
[10] = Hepatitis C virus, read-out: 2B IC50 (nM), replicon 2B
[11] = Hepatitis C virus, HCV replicon 1A
[12] = Hepatitis C virus, HCV replicon 1B

SMILES | IC50 [1, 6] [nM] | IC50 ([2]; replicon 1A) [pM] | IC50 ([3]; read-out: 2B IC50, replicon 2B) [nM] | IC50 ([4]; replicon 1B) [pM] | IC50 [5, 7] [nM] | IC50 ([4]; Hepatitis C virus, replicon 1B) [pM] | IC50 [5, 8] [nM] | IC50 ([2]; Hepatitis C virus, replicon 1A) [pM] | other results
COC(=O)NC(C(=O)N1CCC[C@H]1c1ncc(-c2ccc3c(c2)cc2n3C(c3ccc(C4CC4)s3)Oc3cc(-c4cnc([C@@H]5CCCN5C(=O)[C@@H](NC(=O)OC)C(C)C)[nH]4)cc(F)c3-2)[nH]1)C1CCO[C@H](C)C1 (single isomer, unassigned) [Compound 138] | 0.019 | 1.3 | 0.061 | 1.4 | 0.67 |  |  |  | 
COC(=O)N[C@H](C(=O)N1CCC[C@H]1c1ncc(-c2cc(F)c3c(c2)OC(c2ccc(C#CC4CC4)s2)n2c-3cc3cc(-c4cnc([C@@H]5CCCN5C(=O)[C@@H](NC(=O)OC)C(C)C)[nH]4)ccc32)[nH]1)C(C)C (single isomer, unassigned) [Compound 86] | 0.003 | 1.6 | 0.033 |  |  | 1.6 | 0.11 |  | 
CCc1ccc(C2Oc3cc(-c4cnc([C@@H]5CCCN5C(=O)C(NC(=O)OC)C5CCOC(C)(C)C5)[nH]4)cc(F)c3-c3cc4cc(-c5cnc([C@@H]6CCCN6C(=O)C(NC(=O)OC)C6CCOC(C)(C)C6)[nH]5)ccc4n32)s1 (single isomer, unassigned) [Compound 296] | 0.002 | 2.8 | 0.005 | 3.3 | 0.005 |  |  |  | 
CCc1ccc(C2Oc3cc(-c4cnc([C@@H]5CCCN5C(=O)[C@@H](NC(=O)OC)C(C)C)[nH]4)cc(F)c3-c3cc4cc(-c5cnc([C@@H]6C[C@@H](F)CN6C(=O)C(NC(=O)OC)C6CCOC(C)(C)C6)[nH]5)ccc4n32)s1 (single isomer, unassigned) [Compound 258] | 0.004 | 1.8 | 0.43 |  | 1.2 | 2.7 |  |  | 
COC(=O)NC(C(=O)N1CCC[C@H]1c1ncc(-c2cc(F)c3c(c2)OC(c2ccc(C4CCC4)s2)n2c-3cc3cc(-c4cnc([C@@H]5CCCN5C(=O)[C@@H](NC(=O)OC)C5CCOCC5)[nH]4)ccc32)[nH]1)C(C)(C)F (stereo partly shown) [Compound 250] |  |  |  |  |  | 2.9 | 0.013 | 2.2 | IC50 [1, 9]: 0.003 nM; IC50 [3, 10]: 0.001 nM
COC(=O)NC(C(=O)N1CCC[C@H]1c1ncc(-c2ccc3c(c2)cc2n3C(c3ccc(C4CCC4)s3)Oc3cc(-c4cnc([C@@H]5CCCN5C(=O)[C@@H](NC(=O)OC)C(C)C)[nH]4)cc(F)c3-2)[nH]1)C1C[C@@H](C)O[C@@H](C)C1 (stereo partly shown) [Compound 374] |  |  |  |  |  | 2.2 | 0.0221 | 1.5 | IC50 [1, 9]: 0.0035 nM; IC50 [3, 10]: 0.0041 nM
COC(=O)N[C@H](C(=O)N1CCC[C@H]1c1ncc(-c2cc(F)c3c(c2)OC(c2ccc(C(F)F)s2)n2c-3cc3cc(-c4cnc([C@@H]5CCCN5C(=O)[C@@H](NC(=O)OC)C(C)C)[nH]4)ccc32)[nH]1)C(C)C (single isomer, unassigned) [Compound 46] |  |  |  |  |  | 1 | 17.1 | 2.9 | IC50 [1, 9]: 2.6 nM; IC50 [3, 10]: 1.79 nM
COC(=O)N[C@H](C(=O)N1CCC[C@H]1c1ncc(-c2cc(C)c3c(c2)OC(c2ccc(C4CC4)s2)n2c-3cc3cc(-c4cnc([C@@H]5C[C@H]6C[C@H]6N5C(=O)[C@@H](NC(=O)OC)C5CCOCC5)[nH]4)ccc32)[nH]1)C(C)C (single isomer, unassigned) [Compound 762] |  |  |  |  |  |  |  |  | IC50 ([1]; read-out: 1A Y93H IC50, HCV replicon 1A Y93H): 0.005 nM; IC50 [2, 11]: 2 pM; IC50 ([3]; read-out: 2B IC50, HCV replicon 2B): 0.0048 nM; IC50 [4, 12]: 3 pM; IC50 ([5]; read-out: 1A Q30D IC50, HCV replicon 1A Q30D): 0.025 nM
COC(=O)N[C@H](C(=O)N1CCC[C@@H]1c1ncc(-c2ccc3c(c2)cc2n3C(c3ccc(C4CC4)s3)Oc3cc(-c4cnc([C@@H]5CCCN5C(=O)[C@H](NC(=O)OC)C(C)(C)F)[nH]4)cc(F)c3-2)[nH]1)C1C[C@@H](C)O[C@@H](C)C1 (stereo partly shown) [Compound 380] |  |  |  |  |  | 2.4 | 0.022 | 3 | IC50 [1, 9]: 0.0052 nM; IC50 [3, 10]: 0.0056 nM
COC(=O)NC(C(=O)N1CCC[C@H]1c1ncc(-c2cc(F)c3c(c2)OC(c2ccc(C)s2)n2c-3cc3cc(-c4cnc([C@@H]5CCCN5C(=O)[C@@H](NC(=O)OC)C5CCOCC5)[nH]4)ccc32)[nH]1)C(C)(C)F (single isomer, unassigned) [Compound 105] |  | 1.5 |  | 2.9 |  |  |  |  | IC50 ([1]; replicon 1AY93H, read-out: 1A Y93H IC50): 0.01 nM; IC50 ([3]; replicon 2B, read-out: 2B IC50): 0.012 nM; IC50 ([5]; replicon 1AQ30D, read-out: 1A Q30D IC50): 0.03 nM
COC(=O)N[C@H](C(=O)N1CCC[C@@H]1c1ncc(-c2cc(F)c3c(c2)OC(c2ccc(C(C)C)s2)n2c-3cc3cc(-c4c[nH]c([C@@H]5CCCN5C(=O)[C@H](NC(=O)OC)C5C[C@@H](C)O[C@@H](C)C5)n4)ccc32)[nH]1)C(C)C (stereo partly shown) [Compound 241] | 0.005 | 1.6 | 0.016 | 2.4 | 0.033 |  |  |  | 
COC(=O)N[C@H](C(=O)N1CCC[C@H]1c1ncc(-c2cc(F)c3c(c2)OC(c2cc4nccnc4s2)n2c-3cc3cc(-c4cnc([C@@H]5CCCN5C(=O)[C@@H](NC(=O)OC)C(C)C)[nH]4)ccc32)[nH]1)C(C)C (single isomer, unassigned) [Compound 48] | 0.027 | 1.9 | 0.016 |  |  | 1.7 | 0.54 |  | 
COC(=O)N[C@H](C(=O)N1CCC[C@H]1c1ncc(-c2ccc3c(c2)cc2n3C(c3ccc(C4CC4)s3)Oc3cc(-c4cnc([C@@H]5CCCN5C(=O)[C@@H](NC(=O)OC)C5CCOCC5)[nH]4)cc(C)c3-2)[nH]1)C(C)C (single isomer, unassigned) [Compound 122] | 0.007 |  | 0.003 |  | 0.029 | 2.3 |  | 2 | 
COC(=O)NC(C(=O)N1CCC[C@H]1c1ncc(-c2cc(F)c3c(c2)OC(c2ccc(C4CC4)s2)n2c-3cc3cc(-c4cnc([C@@H]5CCCN5C(=O)[C@@H](NC(=O)OC)C(C)C)[nH]4)ccc32)[nH]1)C1CCOC(C)(C)C1 (single isomer, unassigned) [Compound 215] | 0.005 | 3.1 | 0.01 | 3.2 | 0.017 |  |  |  | 
COC(=O)NC(C(=O)N1CCC[C@H]1c1ncc(-c2cc(F)c3c(c2)OC(c2ccc(C4CCC4)s2)n2c-3cc3cc(-c4cnc([C@@H]5CCCN5C(=O)[C@@H](NC(=O)OC)C5CCOCC5)[nH]4)ccc32)[nH]1)C(C)(C)F (single isomer, unassigned) [Compound 248] | 0.11 | 2.5 | 0.076 |  |  | 3.2 | 0.43 |  | 
COC(=O)NC(C(=O)N1CCC[C@H]1c1ncc(-c2ccc3c(c2)cc2n3C(c3ccc(CC4CC4)s3)Oc3cc(-c4cnc([C@@H]5CCCN5C(=O)[C@@H](NC(=O)OC)C(C)C)[nH]4)cc(F)c3-2)[nH]1)C1CCO[C@H](C)C1 (single isomer, unassigned) [Compound 367] | 0.0343 |  | 0.0223 |  | 0.361 | 3.4 |  | 2.1 | 
CCc1ccc(C2Oc3cc(-c4cnc([C@@H]5CCCN5C(=O)[C@@H](NC(=O)OC)C(C)C)[nH]4)cc(F)c3-c3cc4cc(-c5cnc([C@@H]6CCCN6C(=O)[C@@H](NC(=O)OC)C6CCOCC6)[nH]5)ccc4n32)s1 (single isomer, unassigned) [Compound 337] | 0.0021 | 1.6 | 0.0039 | 1.6 | 0.0266 |  |  |  | 
COC(=O)N[C@H](C(=O)N1CCC[C@H]1c1ncc(-c2ccc3c(c2)OC(c2cc4ccccc4s2)n2c-3cc3cc(-c4cnc([C@@H]5CCCN5C(=O)[C@@H](NC(=O)OC)C5CCOCC5)[nH]4)ccc32)[nH]1)C1CCOCC1 (single isomer, unassigned) [Compound 263] | 0.003 | 3.6 | 0.005 | 3.4 | 0.012 |  |  |  | 
CCc1ccc(C2Oc3cc(-c4cnc([C@@H]5CCCN5C(=O)[C@@H](NC(=O)OC)C(C)C)[nH]4)cc(C)c3-c3cc4cc(-c5cnc([C@@H]6CCCN6C(=O)[C@@H](NC(=O)OC)C6CCOCC6)[nH]5)ccc4n32)s1 (single isomer, unassigned) [Compound 560] |  |  |  |  |  |  |  |  | IC50 ([1]; Hepatitis C virus, read-out: 1A Y93H IC50, HCV replicon 1A Y93H): 0.13 nM; IC50 [2, 11]: 7.1 pM; IC50 ([3]; Hepatitis C virus, read-out: 2B IC50, HCV replicon 2B): 0.0516 nM; IC50 [4, 12]: 9.93 pM; IC50 ([5]; Hepatitis C virus, read-out: 1A Q30D IC50, HCV replicon 1A Q30D): 1.56 nM
COC(=O)NC(C(=O)N1CCC[C@H]1c1ncc(-c2ccc3c(c2)cc2n3C(c3cc4ccccc4s3)Oc3cc(-c4cnc([C@@H]5CCCN5C(=O)[C@@H](NC(=O)OC)C5CCOCC5)[nH]4)cc(F)c3-2)[nH]1)C(C)(C)F (single isomer, unassigned) [Compound 182] | 0.044 | 2 | 0.005 |  | 0.049 | 2 |  |  | 
